US9327008B2, “Cell-permeant peptide-based inhibitor of kinases” (Purdue Research Foundation, priority 2008, dated 2016)

Tested on: IL-1β induced IL-6 expression in mesothelial cells (CRL-9444)
Assay: IL-6 ELISA, mesothelial cells induced with IL-1β
Type: cell-based
Details: IL-1β 1 ng/ml
Description: A cell line of pleural mesothelial cells (CRL-9444) was purchased from American Type Culture Collection. Cells were maintained and seeded in Medium 199 with Earle's BSS and 0.75 mM L-glutamine (Mediatech, Inc., Manassas, Va.), 1.25 g/L sodium bicarbonate (Sigma, St. Louis, Mo.), 3.3 nM epidermal growth factor (MBL International, Woburn, Mass.), 40 nM hydrocortisone (Sigma), 870 nM insulin (MBL International), 20 mM HEPES (Sigma), trace elements mixture B (Mediatech, Inc.), 10% fetal bovine serum (FBS) (Hyclone, Waltham, Mass.) and 1% penicillin/streptomycin (Mediatech, Inc.). Prior to treating cells with therapeutic inhibitor peptides, cells were allowed to acclimate in serum-free media consisting of only Medium 199 with Earle's BSS. L-glutamine, sodium bicarbonate, HEPES, trace elements mixture B, and penicillin/streptomycin (concentrations and suppliers as above) for 24 hours prior to treatment with cytokines and/or inhibitor peptides. […] For all cell culture experiments, the cell-penetrating MK2 inhibitor peptide sequence [sequence] [SEQ ID NO: 11] was used.
IL-6 analysis was performed with a IL-6 ELISA kit (PeproTech, Inc., Rocky Hill, N.J.). Briefly, the plate was prepared as follows. The capture antibody (antigen-affinity purified goat anti-hIL-6+2.5 mg D-mannitol) was diluted with phosphate buffered saline (PBS) to a concentration of 1 μg/ml and added to the each well of the plate. The plate was sealed and incubated at room temperature overnight. The wells then were aspirated to remove liquid, and washed 4 times using wash buffer (300 μl per well of 0.05% Tween-20 in PBS). After the last wash, the plate was inverted to remove residual buffer, and blotted on a paper towel. Block buffer (300 μl per well of 1% BSA in PBS) was added, the plate incubated for at least 1 hour at room temperature, aspirated and washed 4 times.
Standards (from 2 ng/ml to zero) and samples were prepared in diluent, immediately added to each well in triplicate, and incubated at room temperature for at least 2 hours on a plate shaker adjusted to 300 rpm. […] Following the incubation, the plate was aspirated, washed 4 times, avidin-horse radish peroxidase (HRP) conjugate added ((5.5 μl:10994.5 μl diluent) (100 μl) to each well, incubated for 30 minutes at room temperature on a plate shaker adjusted to 300 rpm, aspirated, and washed 4 times. To each well then was added ABTS Liquid Substrate Solution (Sigma) (100 μl). The plate was incubated at room temperature for color development on a plate shaker adjusted to 300 rpm. Absorbance was measured at 405 nm and 650 nm (650 nm was the wavelength correction subtracted from each 405 nm measurement) using a Spectramax M5 Microplate Reader (Molecular Devices) every 5 minutes for 50 minutes. Hoeschst 33342 nuclear stain (Invitrogen) was used to quantify cell number on the basis of DNA quantity. All results were run in triplicate and normalized to cell number.
One-way ANOVA analyses were used to determine statistically significant increases or decreases in parameters of interest. Significant differences were analyzed with Tukey HSD post hoc comparisons. A significance level of α=0.05 was used in cytokine analyses.
Mesothelial cells were incubated with IL-1β (1 ng/ml) (to induce IL-6 expression) and/or different concentrations of therapeutic inhibitor peptide. The commercially available protein kinase inhibitor Rottlerin was introduced as an inhibitor of both MK2 and PRAK.

Sequence: YARAAARQARAKALARQLGVAA
- IL-1β induced IL-6 expression (FIG. 7) (different concentrations of peptide): inhibited
- time at which significant reduction of IL-1β induced IL-6 expression occurs (peptide 3 mM): 6 h
- IL-1β induced IL-6 expression (FIG. 7) (peptide 3 mM (highest concentration)): significantly reduced
